Assay results from patent publication US20230255939A1, “Antimicrobial Agent for Non-Human Animal” (ISHIHARA SANGYO KAISHA, LTD, priority 2020, published 2023).
≈ marks a conversion by molar mass, not a printed value.

Test system: Microsporum canis (NBRC7863)
Assay: Antimicrobial activity test, minimum inhibitory concentration (Test Example 5)
Format: cell-based
Conditions: Sabouraud media, 25° C. for 120 hours
Procedure: Test Example 5: Antimicrobial Activity Test Test Compound: Compound No. 6 Test Microbial Strain: Microsporum Canis (NBRC7863) The strain was cultured in a Sabouraud medium and then suspended in PBS containing Tween80 (1% (V/V)), the resulting suspension was filtered through a cell strainer (φ40 µm), spores were recovered from the filtrate by centrifugation (3500 rpm, 5 minutes) and washed twice with physiological saline, and then a spore suspension was prepared (1 × 10^6 spores/mL). 50 µL of the spore suspension was inoculated into Sabouraud media to which compound No. 6 dissolved in DMSO was added to have various concentrations. After culturing at 25° C. for 120 hours, the presence or absence of microbial growth was investigated, and the minimum inhibitory concentration was determined.

Cc1ccc(-c2nc(C#N)[nH]c2Cl)cc1Cl [Compound No. 6, 5-chloro-4-(3-chloro-4-methylphenyl)-1H-imidazole-2-carbonitrile] showed an MIC of 125 µg/mL (≈ 496 µM).
